Reference: patent publication US4337199A, “Antibiotic β-lactam compounds, production thereof, and their use as antimicrobial agent” (Sanraku-Ocean Co., Ltd., priority 1978, dated 1982)
In brackets after ≈: the same amount, converted by molar mass. Like-named read-outs stand apart in the source and are kept apart here. Blank lines part the entries; values can stand above or below the compound they belong to.

Columns and labels:
Experiment in all cases: minimum inhibitory concentration, agar dilution assay
Assay type in all cases: cell-based
Alcaligenes faecalis A 1 = details: read-out: minimum inhibitory concentration
Procedure: (§1) The antibiotic activities shown in Tables I-1 to I-8 above were determined in the following manner.
(§2) The minimum inhibitory concentrations of the compounds of formula (I-a-1) or (I-b-1) in Tables I-1 to I-7 and the known compounds in Table I-8 on the various microorganisms shown in the above tables were measured by an agar dilution assay method using a brain heart infusion agar medium "Difco" (a product of Difco Laboratories Inc.)
(§3) A sample of the test compound was dissolved in sterile distilled water and diluted to prepare a two-fold dilution series of the compound solution. In a petri plate of 9 cm diameter, 1 ml of the compound solution was added to 9 ml of molten sterile heart infusion agar medium (Difco Laboratories Inc.) at about 60° C. to prepare the compound-containing agar plate. An overnight culture of each test organism indicated in the above table which was prepared by stationary cultivation in Trypto-Soy broth (Eiken Chemi. Co., Ltd.) at 35° C. for 18 to 20 hours, was diluted with the Trypto-Soy broth to give approximately 10^8 cells/ml and the diluted inoculum was inoculated onto the compound-containing agar plates. After cultivating the plates at 35° C. for 20 hours, the growth of the organism was observed. The minimum concentration of the compound at which no growth of the microorganism was noted was determined, and defined as the minimum inhibitory concentration of the test compound.

[1] = tested on: Bacillus subtilis ATCC 6633; details: read-out: minimum inhibitory concentration
Procedure: as §1, §2, §3

[2] = tested on: Citrobacter freundii GN 346; details: read-out: minimum inhibitory concentration
Procedure: as §1, §2, §3

[3] = tested on: Comamonas terrigena B-996; details: read-out: minimum inhibitory concentration
Procedure: as §1, §2, §3

[4] = tested on: Enterobacter aerogenes E19; details: Klebsiella aerogenes, read-out: minimum inhibitory concentration
Procedure: as §1, §2, §3

Enterobacter cloacae 45 = details: read-out: minimum inhibitory concentration
Procedure: as §1, §2, §3

Enterobacter sp. E8 = details: read-out: minimum inhibitory concentration
Procedure: as §1, §2, §3

Escherichia coli K-12 = details: read-out: minimum inhibitory concentration
Procedure: as §1, §2, §3

Escherichia coli RGN 823 = details: read-out: minimum inhibitory concentration
Procedure: as §1, §2, §3

[5] = tested on: Klebsiella pneumoniae K-13; details: read-out: minimum inhibitory concentration
Procedure: as §1, §2, §3

Proteus mirabilis P6 = details: read-out: minimum inhibitory concentration
Procedure: as §1, §2, §3

Proteus rettgeri P7 = details: Providencia rettgeri, read-out: minimum inhibitory concentration
Procedure: as §1, §2, §3

Proteus sp. P22 = details: read-out: minimum inhibitory concentration
Procedure: as §1, §2, §3

Proteus vulgaris GN76 = details: read-out: minimum inhibitory concentration
Procedure: as §1, §2, §3

Providencia sp. P8 = details: read-out: minimum inhibitory concentration
Procedure: as §1, §2, §3

[6] = tested on: Pseudomonas aeruginosa IFO3445; details: read-out: minimum inhibitory concentration
Procedure: as §1, §2, §3

[7] = tested on: Pseudomonas aeruginosa NCTC10490; details: read-out: minimum inhibitory concentration
Procedure: as §1, §2, §3

Sarcina lutea = details: Micrococcus luteus, read-out: minimum inhibitory concentration
Procedure: as §1, §2, §3

Serratia marcescens S18 = details: read-out: minimum inhibitory concentration
Procedure: as §1, §2, §3

Serratia marcescens T55 = details: read-out: minimum inhibitory concentration
Procedure: as §1, §2, §3

[8] = tested on: Staphylococcus aureus FDA 209P; details: FDA209P, read-out: minimum inhibitory concentration
Procedure: as §1, §2, §3

[9] = tested on: Staphylococcus aureus Russell; details: read-out: minimum inhibitory concentration
Procedure: as §1, §2, §3

[10] = tested on: Staphylococcus aureus Smith; details: read-out: minimum inhibitory concentration
Procedure: as §1, §2, §3

[11] = tested on: Staphylococcus epidermidis; details: read-out: minimum inhibitory concentration
Procedure: as §1, §2, §3

[12] = agar dilution, 35° C., 20 hours

MIC (Alcaligenes faecalis A 1; A1, agar dilution, 35° C., 20 hours): 0.2 µg/mL (≈ 0.687 µM)
MIC ([1]; ATCC6633, agar dilution, 35° C., 20 hours): < 0.012 µg/mL
MIC ([2]; GN346, agar dilution, 35° C., 20 hours): 25 µg/mL (≈ 85.8 µM)
MIC ([3]; B996, agar dilution, 35° C., 20 hours): < 0.012 µg/mL
MIC ([4]; E19, agar dilution, 35° C., 20 hours): 12.5 µg/mL (≈ 42.9 µM)
MIC (Enterobacter cloacae 45; Enterobacter cloacae, 45, agar dilution, 35° C., 20 hours): 25 µg/mL (≈ 85.8 µM)
MIC (Enterobacter sp. E8; SP.E8, agar dilution, 35° C., 20 hours): 3.13 µg/mL (≈ 10.7 µM)
MIC (Escherichia coli K-12; K12, agar dilution, 35° C., 20 hours): 1.56 µg/mL (≈ 5.35 µM)
MIC (Escherichia coli RGN 823; RGN823, agar dilution, 35° C., 20 hours): 3.13 µg/mL (≈ 10.7 µM)
MIC ([5]; K13, agar dilution, 35° C., 20 hours): 12.5 µg/mL (≈ 42.9 µM)
MIC (Proteus mirabilis P6; P6, agar dilution, 35° C., 20 hours): 3.13 µg/mL (≈ 10.7 µM)
MIC (Proteus rettgeri P7; P7, agar dilution, 35° C., 20 hours): 3.13 µg/mL (≈ 10.7 µM)
MIC (Proteus sp. P22; [12]): 12.5 µg/mL (≈ 42.9 µM)
MIC (Proteus vulgaris GN76; GN76, agar dilution, 35° C., 20 hours): 6.25 µg/mL (≈ 21.5 µM)
MIC (Providencia sp. P8; SP.P8, agar dilution, 35° C., 20 hours): 0.78 µg/mL (≈ 2.68 µM)
MIC ([6]; IFO3445, agar dilution, 35° C., 20 hours): 12.5 µg/mL (≈ 42.9 µM)
MIC ([7]; NCTC10490, agar dilution, 35° C., 20 hours): 12.5 µg/mL (≈ 42.9 µM)
MIC (Sarcina lutea; [12]): < 0.012 µg/mL
MIC (Serratia marcescens S18; S18, agar dilution, 35° C., 20 hours): 12.5 µg/mL (≈ 42.9 µM)
MIC (Serratia marcescens T55; T55, agar dilution, 35° C., 20 hours): 25 µg/mL (≈ 85.8 µM)
MIC [8, 12]: < 0.012 µg/mL
MIC [9, 12]: < 0.012 µg/mL
MIC [10, 12]: 0.024 µg/mL (≈ 0.0824 µM)
MIC [11, 12]: 0.024 µg/mL (≈ 0.0824 µM)
Structure (SMILES): CCC1C(=O)N2C(C(=O)O)=C(Sc3ncccn3)CC12 (stereo not drawn) [Example 61, 3-(2-pyrimidinylthio)-6-ethyl-7-oxo-1-azabicyclo[3.2.0]hept-2-ene-2-carboxylic acid]

Structure (SMILES): CCC1C(=O)N2C(C(=O)[O-])=C(Sc3ccccc3)CC12.[Na+] (stereo not drawn)
MIC (Alcaligenes faecalis A 1; A1, 20 h): 4.7 µg/mL
MIC ([1]; ATCC6633, 20 h): 0.07 µg/mL
MIC ([2]; GN346, 20 h): 150 µg/mL
MIC ([3]; B996, 20 h): < 0.01 µg/mL
MIC ([4]; E19, 20 h): 150 µg/mL
MIC (Enterobacter cloacae 45; Enterobacter cloacae, 45, 20 h): 150 µg/mL
MIC (Enterobacter sp. E8; SP.E8, 20 h): 75 µg/mL
MIC (Escherichia coli K-12; K12, 20 h): 37.5 µg/mL
MIC (Escherichia coli RGN 823; RGN823, 20 h): 37.5 µg/mL
MIC ([5]; K13, 20 h): > 150 µg/mL
MIC (Proteus mirabilis P6; P6, 20 h): 75 µg/mL
MIC (Proteus rettgeri P7; P7, 20 h): 75 µg/mL
MIC (Proteus sp. P22; 20 h): 75 µg/mL
MIC (Proteus vulgaris GN76; GN76, 20 h): 150 µg/mL
MIC (Providencia sp. P8; SP.P8, 20 h): 18.8 µg/mL
MIC ([6]; IFO3445, 20 h): 18.8 µg/mL
MIC ([7]; NCTC10490, 20 h): 4.7 µg/mL
MIC (Sarcina lutea; 20 h): < 0.01 µg/mL
MIC (Serratia marcescens S18; S18, 20 h): 75 µg/mL
MIC (Serratia marcescens T55; T55, 20 h): 150 µg/mL
MIC ([8]; 20 h): < 0.01 µg/mL
MIC ([9]; 20 h): < 0.01 µg/mL
MIC ([10]; 20 h): 0.1 µg/mL
MIC ([11]; 20 h): < 0.01 µg/mL
